Laboratory results from BindingDB's records for doi:10.1111/cbdd.12458 (Pontificia Universidad Catolica De Chile, 2015).

What was measured:
[1] = target: T1, Amine oxidase [flavin-containing] A (Rattus norvegicus, UniProt P21396); assay: Monoamine Oxidase Inhibition Assay
T1 sequence (P21396 whole entry): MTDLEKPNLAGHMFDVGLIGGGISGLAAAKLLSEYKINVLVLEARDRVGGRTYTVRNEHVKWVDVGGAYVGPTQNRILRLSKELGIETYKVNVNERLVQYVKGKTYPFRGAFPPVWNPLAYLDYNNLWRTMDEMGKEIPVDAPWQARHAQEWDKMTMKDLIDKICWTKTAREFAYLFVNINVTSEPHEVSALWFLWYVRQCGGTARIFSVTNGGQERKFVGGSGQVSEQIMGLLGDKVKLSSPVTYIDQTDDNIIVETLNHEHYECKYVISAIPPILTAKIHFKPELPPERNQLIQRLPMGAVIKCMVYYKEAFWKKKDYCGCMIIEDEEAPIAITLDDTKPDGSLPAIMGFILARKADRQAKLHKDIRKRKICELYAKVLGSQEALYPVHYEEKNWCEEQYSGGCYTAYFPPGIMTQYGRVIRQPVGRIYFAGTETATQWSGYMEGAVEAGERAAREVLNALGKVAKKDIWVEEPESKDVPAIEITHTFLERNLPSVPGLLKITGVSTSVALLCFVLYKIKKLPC
Procedure: (§1) Briefly, a crude rat brain mitochondrial suspension (male Sprague Dawley rats weighing 180 220 g, killed by decapitation) was used as protein source. Serotonin(5-HT, 100 µM) and 4-dimethylaminophenethylamine (DMAPEA, 5 µM) were used as selective substrates for MAO-A and MAO-B, respectively. The reaction mixtures were analyzed with a Merck-Hitachi HPLC (Tokyo, Japan), employing a C18 reverse phase column (Lichrospher 250 9 4.6 mm, 5 µm) and an amperometric detector (Merck Recipe L3500A). Tetrahydrofuran and acetonitrile (Merck) were used as eluents.

[2] = target: T2, Amine oxidase [flavin-containing] B (Rattus norvegicus, UniProt P19643); assay: Monoamine Oxidase Inhibition Assay
T2 sequence (P19643 whole entry): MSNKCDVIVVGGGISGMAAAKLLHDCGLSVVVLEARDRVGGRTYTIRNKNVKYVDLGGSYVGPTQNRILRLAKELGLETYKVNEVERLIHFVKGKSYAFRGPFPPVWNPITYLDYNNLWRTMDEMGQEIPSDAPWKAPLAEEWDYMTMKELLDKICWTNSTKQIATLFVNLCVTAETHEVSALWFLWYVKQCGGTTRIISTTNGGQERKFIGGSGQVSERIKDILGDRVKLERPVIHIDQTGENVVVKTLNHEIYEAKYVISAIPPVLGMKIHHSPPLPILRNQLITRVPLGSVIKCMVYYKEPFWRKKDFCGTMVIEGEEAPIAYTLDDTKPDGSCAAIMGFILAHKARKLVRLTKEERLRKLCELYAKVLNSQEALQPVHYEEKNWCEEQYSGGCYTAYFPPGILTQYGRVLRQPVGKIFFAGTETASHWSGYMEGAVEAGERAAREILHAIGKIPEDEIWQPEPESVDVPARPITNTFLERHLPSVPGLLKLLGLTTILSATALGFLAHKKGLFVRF
Procedure: as §1

| SMILES | IC50 [1] | IC50 [2] |
| --- | --- | --- |
| COc1ccc(OC)c(/C=C/C(=O)c2c(O)cccc2OC)c1 [(E)-3-(2,5-Dimethoxyphenyl)-1-(2-hydroxy-6-methoxyphenyl)prop-2-en-1-one (3a)] | > 100 µM | 10.9 µM |
| COc1cc(/C=C2\Oc3cccc(OC)c3C2=O)c(OC)cc1Br [(Z)-2-(4-Bromo-2,5-dimethoxybenzylidene)-4-methoxybenzofuran-3(2H)-one (4d)] | > 100 µM | 26.3 µM |
| COc1ccc2c(c1)C(=O)/C(=C/c1cc(OC)c(Br)cc1OC)O2 [(Z)-2-(4-Bromo-2,5-dimethoxybenzylidene)-5-methoxybenzofuran-3(2H)-one (4h)] | > 100 µM | 13.5 µM |
| COc1ccc(O)c(C(=O)/C=C/c2cc(OC)c(Br)cc2OC)c1 [(E)-3-(4-Bromo-2,5-dimethoxyphenyl)-1-(2-hydroxy-5-methoxyphenyl)prop-2-en-1-one (3h)] | > 100 µM | 2.8 µM |
| COc1ccc(O)c(C(=O)/C=C/c2cccc(OC)c2OC)c1 [(E)-3-(2,3-Dimethoxyphenyl)-1-(2-hydroxy-5-methoxyphenyl)prop-2-en-1-one (3g)] | > 100 µM | 6.8 µM |

Further lines, results first:

| IC50 [1] | IC50 [2] | SMILES |
| --- | --- | --- |
| > 100 µM | 11.6 µM | COc1ccc2c(c1)C(=O)/C(=C/c1cccc(OC)c1OC)O2 [(Z)-2-(2,3-Dimethoxybenzylidene)-5-methoxybenzofuran-3(2H)-one (4g)] |
| > 100 µM | 17.8 µM | COc1ccc(OC)c(/C=C2\Oc3cccc(OC)c3C2=O)c1 [(Z)-2-(2,5-Dimethoxybenzylidene)-4-methoxybenzofuran-3(2H)-one (4a)] |
| > 100 µM | 6.1 µM | COc1cc(/C=C/C(=O)c2c(O)cccc2OC)c(OC)cc1Br [(E)-3-(4-Bromo-2,5-dimethoxyphenyl)-1-(2-hydroxy-6-methoxyphenyl)prop-2-en-1-one (3d)] |
